Results taken from patent publication US8906913B2, “Azabicyclohexanes” (Panacea Biotec Limited, priority 2009, dated 2014).
In brackets after ≈: the same amount, converted by molar mass.

Tests used:
[1] = tested on: Staphylococcus aureus ATCC 33591 MRSA (Methicillin resistant); experiment: In-vitro antibacterial activity, broth microdilution MIC; format: cell-based; details: Table 9, S. aureus MRSA, read-out: Antimicrobial activity (in vitro MIC) ATCC 33591
Protocol: (§1) The in-vitro antibacterial activity of the compounds of the present invention (as described in Table 7) was determined by a broth microdilution following the guidelines prescribed by the Clinical and Laboratory Standards Institute (CLSI). This method is described in the CLSI Document M7-A7, Vol. 26, No. 2, “Methods for Dilution Antimicrobial Susceptibility Test for Bacteria that Grow Aerobically; Approved Standard-Seventh Edition”, which is incorporated herein by reference. Minimum Inhibitory Concentration (MIC) is defined as the minimum concentration of test compound which inhibits the growth of bacteria as visible or seen by the naked eye. This test can also be carried out by agar dilution method.
(§2) The compounds of the present invention were tested against a panel of standard microorganisms obtained from ATCC (American type culture collection). Linezolid was used as comparator in all the tests.
(§3) In the broth microdilution method, the compound was dissolved in dimethylsulfoxide and two fold serial dilutions were carried out in 96 well microtitre plates. The inoculum was prepared by adjusting the turbidity of actively growing broth culture and added to the wells to obtain a final bacterial count of ˜2-5×10^4 CFU/well. The microtitre plates were incubated at 35±2° C. for 16-20 h and then read visually.

[2] = tested on: Enterococcus faecium ATCC 700221 VRE (Vancomycin resistant E. faecium); experiment: as above; format: cell-based; details: Table 9, read-out: Antimicrobial activity (in vitro MIC) ATCC 700221
Protocol: as §1, §2, §3

[3] = tested on: Staphylococcus aureus ATCC 29213 MSSA (Methicillin sensitive); experiment: as above; format: cell-based; details: Table 9, S. aureus MSSA, read-out: Antimicrobial activity (in vitro MIC) ATCC 29213
Protocol: as §1, §2, §3

[4] = tested on: Enterococcus faecalis ATCC 29212 Vancomycin Sensitive; experiment: as above; format: cell-based; details: ATCC29212, Table 9, E. faecalis, read-out: Antimicrobial activity (in vitro MIC) ATCC 29212
Protocol: as §1, §2, §3

male SWISS albino mice = experiment: Forced Swim Test; format: in vivo; details: mice; for CNS Activity (in vivo FST) % decrease in immobility time / CNS Activity (in vivo FST) % decrease in immobility time (dose 32 mg/kg): Table 9; for CNS Activity (in vivo FST) % decrease in immobility time: footnote *: dose 64 mg/kg/p.o
Protocol: This test was conducted according to the method of Porsolt et al. (Porsolt, R. D., et al., Behavioural despair in mice: A primary screening test for antidepressants. Arch. in Pharmacodyn. Ther., 229, pp 327-336 (1977)).
A test compound was suspended in deionized water, unless otherwise specified, and this suspension was orally administered to male SWISS albino mice (7 to 9 week old). 15 min later, the mice were placed in a water tank having a water depth of 15 cm and a water temperature of 25±1° C. and immediately thereafter allowed to swim for 6 min. Then, a time during which the mouse was immobile (immobility time) was measured for the last 4 min.

SMILES	MIC [1]	MIC [2]	MIC [3]	MIC [4]	CNS Activity (in vivo FST) % decrease in immobility time (male SWISS albino mice)	CNS Activity (in vivo FST) % decrease in immobility time (dose 32 mg/kg) (male SWISS albino mice; 32 mg/kg)	inhibition in vivo at 32 mg/kg (male SWISS albino mice; Mus musculus, 0.25 h, Table 8, oral, 32 mg/kg, suspended in deionized water, 15 min before test, read-out: % decrease in immobility time (dose 32 mg/kg))	% decrease in immobility time (dose 64 mg/kg) (male SWISS albino mice; Table 8, oral, 64 mg/kg, suspended in deionized water, 15 min before test)
CCN1CC2CC2(c2ccc(N3CCOCC3)cc2)C1 (centres unmarked)	> 32 µg/mL	> 32 µg/mL	> 32 µg/mL	> 32 µg/mL	81.0 ± 7.1* %			
CCN1CC2CC2(c2ccc(N3CCCC3)cc2)C1 (centres unmarked) [drawing 535]	> 32 µg/mL	> 32 µg/mL	> 32 µg/mL	> 32 µg/mL		99.9 ± 0.1%		
CCN1CC2CC2(c2ccc(N3CCOC3=O)cc2)C1.Cl (centres unmarked)	> 32 µg/mL	> 32 µg/mL	> 32 µg/mL	> 32 µg/mL		99.2 ± 0.8%		
c1cc(C23CNCC2C3)ccc1N1CCOCC1 (centres unmarked) [drawing 537]	> 32 µg/mL	> 32 µg/mL	> 32 µg/mL	> 32 µg/mL	84.8* %			
CCN1CC2C(COC)C2(c2ccc(N3CCCC3)cc2)C1 (centres unmarked) [drawing 538]	> 32 µg/mL	> 32 µg/mL	> 32 µg/mL	> 32 µg/mL		97.2 ± 1.2%		
CCN1CC2CC2(c2ccc(N3CCC(F)CC3)cc2)C1 (centres unmarked)							62.8 ± 23.4%	
CC(=O)N1CC2CC2(c2ccc(N3C[C@H](CO)OC3=O)cc2)C1 (some centres unmarked) [drawing 534]	2 µg/mL (≈ 6.32 µM)	4 µg/mL (≈ 12.6 µM)	4 µg/mL (≈ 12.6 µM)	4 µg/mL (≈ 12.6 µM)		5.1 ± 1.4%		
CCN1CC2CC2(c2ccc(N3CCN(c4ccccc4)CC3)cc2)C1 (centres unmarked)								65.8 ± 9.9%
